Experimental data taken from patent US20200253211A1, “PHOTODYNAMIC INHIBITION OF MICROBIAL PATHOGENS IN PLANTS” (SUNCOR ENERGY INC, priority 2017, published 2020).

Key:
Type in all cases: cell-based
Sclerotinia homoeocarpa [1] = experiment: Radial growth of dollar spot fungus on amended Potato Dextrose Agar, dark vs light; conditions: rate 31 μM
Sclerotinia homoeocarpa [2] = experiment: Radial growth of dollar spot fungus after treatment of plugs in PBS (24 well plates), dark vs light; conditions: for inhibition at 500 µM: Clarireedia homoeocarpa
Description: In this example, control of dollar spot fungus (Sclerotinia homoeocarpa) with chlorins combined with a chelating agent was assessed. Treatments were prepared in Phosphate Buffered Saline (PBS) in 24 well plates (in duplicates for light vs. dark incubation) at desired concentrations. Then, a 5 mm diameter plug of a Sclerotinia homoeocarpa isolate (3 isolates total tested) was inoculated into the PBS and incubated at 21° C. in the dark for 2 hours. After 2 hours, one of the 24 well plates (with isolates in triplicate) is left in the dark and one 24 well plate is placed under illumination for 1 hour (all at 21° C.). Following illumination, fungal plugs are removed from PBS, blotted dry on sterile filter paper and transferred to non-amended Potato Dextrose Agar (PDA). Radial growth of the fungus is monitored daily until the growth of S. homoeocarpa reaches the edge of the Petri-dish. Illumination is provided by LED lights emitting about 1000 μmol/m^2/s photosynthetically active radiation (PAR). In this example, control of dollar spot fungus (Sclerotinia homoeocarpa) with Zinc Protoporphyrin IX (Zn-PPIX) combined with EDTA was assessed. Treatments were prepared in Phosphate Buffered Saline (PBS) in 24 well plates (in duplicates for light vs. dark incubation) at desired concentrations. Then, a 5 mm diameter plug of a Sclerotinia homoeocarpa isolate (3 isolates total tested) was inoculated into the PBS and incubated at 21° C. in the dark for 2 hours. After 2 hours, one of the 24 well plates (with isolates in triplicate) is left in the dark and one 24 well plate is placed under illumination for 1 hour (all at 21° C.). Following illumination, fungal plugs are removed from PBS, blotted dry on sterile filter paper and transferred to non-amended Potato Dextrose Agar (PDA). Radial growth of the fungus is monitored daily until the growth of S. homoeocarpa reaches the edge of the Petri-dish. Illumination is provided by LED lights emitting about 1000 μmol/m^2/s photosynthetically active radiation (PAR). In this example, control of dollar spot fungus (Sclerotinia homoeocarpa) with bacteriochlorin combined with EDTA was assessed. Treatments were prepared in Phosphate Buffered Saline (PBS) in 24 well plates (in duplicates for light vs. dark incubation) at desired concentrations. Then, a 5 mm diameter plug of a Sclerotinia homoeocarpa isolate (3 isolates total tested) was inoculated into the PBS and incubated at 21° C. in the dark for 2 hours. After 2 hours, one of the 24 well plates (with isolates in triplicate) is left in the dark and one 24 well plate is placed under illumination for 1 hour (all at 21° C.). Following illumination, fungal plugs are removed from PBS, blotted dry on sterile filter paper and transferred to non-amended Potato Dextrose Agar (PDA). Radial growth of the fungus is monitored daily until the growth of S. homoeocarpa reaches the edge of the Petri-dish. Illumination is provided by LED lights emitting about 1000 μmol/m^2/s photosynthetically active radiation (PAR). In this example, control of dollar spot fungus (Sclerotinia homoeocarpa) with Aluminum chlorin e6 combined with EDTA was assessed. Treatments were prepared in Phosphate Buffered Saline (PBS) in 24 well plates (in duplicates for light vs. dark incubation) at desired concentrations. Then, a 5 mm diameter plug of a Sclerotinia homoeocarpa isolate (3 isolates total tested) was inoculated into the PBS and incubated at 21° C. in the dark for 2 hours. After 2 hours, one of the 24 well plates (with isolates in triplicate) is left in the dark and one 24 well plate is placed under illumination for 1 hour (all at 21° C.). Following illumination, fungal plugs are removed from PBS, blotted dry on sterile filter paper and transferred to non-amended Potato Dextrose Agar (PDA). Radial growth of the fungus is monitored daily until the growth of S. homoeocarpa reaches the edge of the Petri-dish. Illumination is provided by LED lights emitting about 1000 μmol/m^2/s photosynthetically active radiation (PAR). […]

E. Coli K-12 = experiment: E. Coli assay under LED lamps, colony count; conditions: light
Description: Regarding the E. Coli assay tests in the above examples, the following procedure was used: • 1. E. Coli K-12 inoculated in 5 mL TSB and placed in a shaking incubator overnight. • 2. Dilute culture in 500 mL PBS (˜10̂8 CFU/mL) and placed in shaking incubator for 30 minutes at […]. • 3.15 mL samples created using 12 mL culture and a mixture of PBS buffer and sample compounds. • 4. Placed under LED lamps for 2 hours (40 W/m^2). • 5. Samples diluted to 10^−4 and culture controls diluted to 10^−5 for plating through series dilutions. • 6. 0.1 mL plated of each sample in triplicates on TSA base (10^−3 and 10^−4 for samples. 10^−4 and 10^−5 for controls). • 7. Incubated overnight at 37° C. • 8. Colonies counted next morning and recorded.

Erwinia amylovora = experiment: Photodynamic inactivation of Erwinia amylovora grown in liquid medium, CFU counted on plates; conditions: Table 1
Description: E. amylovora is grown in liquid medium. Samples are incubated for 30 min with 100 μM of Mg-Chlorophyllin with or without 5 mM of Disodium-EDTA, and then illuminated with 395 nm (fluence 26.6 J cm^−2) for 30 mins. CFU of the bacteria is counted on the plates.
In the experiment, E. amylovora were grown in liquid medium. Samples were incubated for 30 min with 100 μM of Mg-Chlorophyllin with or without Chelators, and then illuminated with 395 nm (fluence 26.6 J cm^−2) for 30 mins. CFU of the bacteria was counted on the plates.

Xanthomonas axonopodis = Xanthomonas axonopodis count after photodynamic treatment in liquid medium; conditions: Mg-Chlorophyllin alone; same protocol as Example 1
Description: Xanthomonas axonopodis are bacterial pathogens that cause citrus canker. Citrus canker is a highly contagious plant disease than can destroy an entire crop field. […] Positive results were obtained at several chlorophyllin concentrations and exposure times.
Xanthomonas were grown in liquid medium. Samples were incubated for 30 mins or 5 mins with Mg-Chlorophyllin and with Disodium-EDTA for 30 mins, and then illuminated with 395 nm (fluence 26.6 J cm−2) for 30 mins. CFU of the bacteria was counted on the plates.

[3] = Table 22A, dark, rate 500 μM, growth between 48 and 72 hours
[4] = Table 22B, light, rate 500 μM, growth between 48 and 72 hours

C=Cc1c(C)c2cc3nc(c(CC(=O)[O-])c4[n-]c(cc5nc(cc1[n-]2)C(C)=C5CC)c(C)c4C(=O)[O-])C(CCC(=O)[O-])C3C.[Mg+2].[Na+].[Na+].[Na+] (stereo not shown) [Mg-Chlorophyllin, Mg-chlorophyllin]
% Inhibition (Sclerotinia homoeocarpa [1]; Table 7A, dark): 24.1%
Mean Radial Growth (Sclerotinia homoeocarpa [1]; Table 7A, dark): 11.2 mm
% Inhibition (Sclerotinia homoeocarpa [1]; Table 7B, light): 51.0%
Mean Radial Growth (Sclerotinia homoeocarpa [1]; Table 7B, light): 6.6 mm
% Inhibition (Sclerotinia homoeocarpa [1]; Table 14A, dark): 32.5%
Mean Radial Growth (Sclerotinia homoeocarpa [1]; Table 14A, dark): 9.1 mm
% Inhibition (Sclerotinia homoeocarpa [1]; Table 14B, light): 59.2%
Mean Radial Growth (Sclerotinia homoeocarpa [1]; Table 14B, light): 5.3 mm
% Inhibition (Sclerotinia homoeocarpa [1]; Table 15A, dark): 32.5%
Mean Radial Growth (Sclerotinia homoeocarpa [1]; Table 15A, dark): 9.1 mm
% Inhibition (Sclerotinia homoeocarpa [1]; Table 15B, light): 59.2%
Mean Radial Growth (Sclerotinia homoeocarpa [1]; Table 15B, light): 5.3 mm
% Inhibition (Sclerotinia homoeocarpa [2]; Table 18A, dark, rate 10 μM): −3.98%
Mean Radial Growth (Sclerotinia homoeocarpa [2]; Table 18A, dark, rate 10 μM): 11.61 mm
% Inhibition (Sclerotinia homoeocarpa [2]; Table 18A, dark, rate 100 μM): −11.94%
Mean Radial Growth (Sclerotinia homoeocarpa [2]; Table 18A, dark, rate 100 μM): 12.50 mm
% Inhibition (Sclerotinia homoeocarpa [2]; Table 18B, light, rate 10 μM): 31.66%
Mean Radial Growth (Sclerotinia homoeocarpa [2]; Table 18B, light, rate 10 μM): 7.56 mm
% Inhibition (Sclerotinia homoeocarpa [2]; Table 18B, light, rate 100 μM): 22.61%
Mean Radial Growth (Sclerotinia homoeocarpa [2]; Table 18B, light, rate 100 μM): 8.56 mm
% Inhibition (Sclerotinia homoeocarpa [2]; Table 25A, dark, rate 5 μM): 1.04%
Mean Radial Growth (Sclerotinia homoeocarpa [2]; Table 25A, dark, rate 5 μM): 10.56 mm
% Inhibition (Sclerotinia homoeocarpa [2]; Table 25B, light, rate 5 μM): 37.76%
Mean Radial Growth (Sclerotinia homoeocarpa [2]; Table 25B, light, rate 5 μM): 6.78 mm
% Inactivation (E. Coli K-12; Table 10, 1 μM MgChln): 95.0%
CFU/mL (E. Coli K-12; Table 10, 1 μM MgChln): 2.73E+05 CFU/mL
LogCFU/mL (E. Coli K-12; Table 10, 1 μM MgChln): 5.44 LogCFU/mL
% Inactivation (E. Coli K-12; Table 10, 10 μM MgChln): 97.6%
CFU/mL (E. Coli K-12; Table 10, 10 μM MgChln): 1.30E+05 CFU/mL
LogCFU/mL (E. Coli K-12; Table 10, 10 μM MgChln): 5.11 LogCFU/mL
% Inactivation (E. Coli K-12; Table 11, 1 μM MgChln): 86.1%
CFU/mL (E. Coli K-12; Table 11, 1 μM MgChln): 9.07E+05 CFU/mL
LogCFU/mL (E. Coli K-12; Table 11, 1 μM MgChln): 5.96 LogCFU/mL
% Inactivation (E. Coli K-12; Table 12, 1 μM MgChln): 91.3%
CFU/mL (E. Coli K-12; Table 12, 1 μM MgChln): 6.13E+05 CFU/mL
LogCFU/mL (E. Coli K-12; Table 12, 1 μM MgChln): 5.79 LogCFU/mL
Relative inactivation, CFU (Erwinia amylovora; Mg-Chlorophyllin 100 μM without EDTA, in light (395 nm, 30 mins)): 1.9
control of Xanthomonas axonopodis (Xanthomonas axonopodis): little effect

O=C(O)CN(CCN(CC(=O)O)CC(=O)O)CC(=O)O [EDTA, disodium EDTA]
inhibition at 500 µM (Sclerotinia homoeocarpa [2]; Table 18A, dark, rate 500 μM): 39.8%
inhibition at 500 µM (Sclerotinia homoeocarpa [2]; Table 18B, light, rate 500 μM): 16.6%
inhibition at 500 µM (Sclerotinia homoeocarpa [2]; Table 19A, light, rate 500 μM): 36%
inhibition at 500 µM (Sclerotinia homoeocarpa [2]; Table 20A, dark, rate 500 μM): 32.8%
inhibition at 500 µM (Sclerotinia homoeocarpa [2]; Table 20B, light, rate 500 μM): 33.5%
inhibition at 500 µM (Sclerotinia homoeocarpa [2]; Table 21A, dark, rate 500 μM): 11.6%
inhibition at 500 µM (Sclerotinia homoeocarpa [2]; Table 21B, light, rate 500 μM): 15.3%
inhibition at 500 µM (Sclerotinia homoeocarpa [2]; [3]): -3.89%
inhibition at 500 µM (Sclerotinia homoeocarpa [2]; [4]): 35.2%
inhibition at 500 µM (Sclerotinia homoeocarpa [2]; Table 31A, dark, rate 500 μM): 13.6%
inhibition at 500 µM (Sclerotinia homoeocarpa [2]; Table 31B, light, rate 500 μM): 36.4%
Mean Radial Growth (Sclerotinia homoeocarpa [2]; Table 18A, dark, rate 500 μM): 6.72 mm
Mean Radial Growth (Sclerotinia homoeocarpa [2]; Table 18B, light, rate 500 μM): 9.22 mm
Mean Radial Growth (Sclerotinia homoeocarpa [2]; Table 19A, light, rate 500 μM): 7.11 mm
Mean Radial Growth (Sclerotinia homoeocarpa [2]; Table 20A, dark, rate 500 μM): 7.17 mm
Mean Radial Growth (Sclerotinia homoeocarpa [2]; Table 20B, light, rate 500 μM): 7.17 mm
Mean Radial Growth (Sclerotinia homoeocarpa [2]; Table 21A, dark, rate 500 μM): 11.06 mm
Mean Radial Growth (Sclerotinia homoeocarpa [2]; Table 21B, light, rate 500 μM): 10.78 mm
Mean Radial Growth (Sclerotinia homoeocarpa [2]; [3]): 14.83 mm
Mean Radial Growth (Sclerotinia homoeocarpa [2]; [4]): 8.89 mm
Mean Radial Growth (Sclerotinia homoeocarpa [2]; Table 31A, dark, rate 500 μM): 12.67 mm
Mean Radial Growth (Sclerotinia homoeocarpa [2]; Table 31B, light, rate 500 μM): 8.17 mm
Relative inactivation, CFU (Erwinia amylovora; EDTA 5 mM alone, in light): 11.1
